# From US20220257622A1, “COMPOSITION FOR MAINTAINING LACTOBACILLUS DOMINANCE” (Kimberly-Clark Worldwide, Inc., priority 2015, published 2022)
# Test system: L. crispatus and E. coli
# Experiment: Therapeutic effect protocol: L. crispatus / E. coli co-culture in LAPT-g medium with carbon source
# Format: cell-based
# Details: therapeutic agent (carbon source) 1 wt/vol %; co-culture incubated anaerobically at 37° C.; measured 36 hours after inoculation
# Procedure: Colonies of L. crispatus and E. coli were prepared as follows. A colony of L. crispatus was transferred to 7 ml MRS broth and incubated anaerobically (using BD GasPak EZ anaerobe container system with indicator) at 37° C. without shaking for 18-20 hours. A colony of E. coli was transferred to 5m1 TSB broth and incubated aerobically (shaking at 100 rpm) at 37° C. for 18-20 hours.
# Colonies were then inoculated as follows. Bacterial cultures were gently vortexed and 1 mL of each culture was transferred to a corresponding 2.0 mL micro-centrifuge tube and then centrifuged for two minutes at 14,500 rpm. The cultural supernatant was removed and the cell pellet was re-suspended in 1 mL of 0.95% (wt/vol %) saline. The re-suspended colony was then centrifuged for two minutes at 14,500 rpms and the supernatant was removed. For L. crispatus, the pellet was re-suspended in 1 mL of 0.95% saline to achieve ˜10^7 -10^8 cfu/mL. For E. coli the pellet was re-suspended in 1 mL of 0.95% saline to achieve ˜10^8-10^9 cfu/mL.
# Media were prepared as follows.
# All of the ingredients in Table 1 were combined and the pH was adjusted to 6.5. The media were then autoclaved for 20 minutes at 125° C. To evaluate the effect of various saccharides and organic acids (noted as carbon sources below), the following samples were prepared:
# Five milliliters (5 mL) of each medium was transferred to a test tube in duplicates for subsequent inoculation. A master mixture of L. crispatus and E. coli, prepared as described above, was prepared in 1,000:1 ratio. Each (5 ml) test tube was inoculated with the master mixture to give 10^5-10^6 total CFU L. crispatus and 100-1,000 total CFU E. coli per tube.
# To establish a negative control, one tube was vortexed and 100 μL was removed to determine the initial cell concentrations by serial dilutions and plating (2 plates per dilution). L. crispatus is selected on MRS agar plates incubated anaerobically at 37° C. for two days. E. coli is selected on TSA plates incubated aerobically at 37° C. for one day. The co-cultures were incubated in an anaerobic container with BD GasPaks at 37° C. for 36 hours.
# The effect of the carbon source on the ratio of L. crispatus to E. coli was measured 36 hours after inoculation. The co-culture tube was vortexed and 100 μL was removed to determine the final cell concentrations by serial dilutions and plating (2 plates per dilution). L. crispatus is selected on MRS agar plates incubated anaerobically at 37° C. for two days. E. coli is selected on TSA plates incubated aerobically at 37° C. for one day.
# The therapeutic effect of the formulation was then measured using the assay described above in the Test Methods section above. The therapeutic effect is summarized below as the ratio of L. crispatus to E. coli.
row,Molecule,L. crispatus/ E. coli ratio
1,"OC[C@H]1O[C@@](CO)(OC[C@@]2(O[C@H]3O[C@H](CO)[C@@H](O)[C@H](O)[C@H]3O)O[C@H](CO)[C@@H](O)[C@@H]2O)[C@@H](O)[C@@H]1O [Sample 1, 1-Kestose]",640
2,"O=CC[C@H](O)[C@H](O)CO [Sample 2, 2-Deoxy-D-Ribose]",161
3,"OC[C@H]1O[C@@](CO)(O[C@H]2O[C@H](CO)[C@@H](O[C@H]3O[C@H](CO)[C@@H](O)[C@H](O)[C@H]3O)[C@H](O)[C@H]2O)[C@@H](O)[C@@H]1O [Sample 3, Erlose]",32.1
4,"OC[C@@H](O)[C@@H](O[C@H]1O[C@H](CO)[C@@H](O)[C@H](O)[C@H]1O)[C@H](O)[C@@H](O)CO [Sample 4, Maltitol]",202
5,Maltotriose [Sample 5],535
6,Palatinose [Sample 6],600
